According to ChEMBL document CHEMBL1127540, “Three-dimensional pharmacophores from binding data” (J Med Chem, 1994):
Starred links: 1 amine or outer side, 2 acyl side, 3 side chain; linkers in the order of their positions; H or OH if unused. Non-standard residues stand in square brackets, D forms with d. Residues, ends and D or L forms follow the SMILES beside them. *: point of attachment. Hexanoyl(5S-NH,4S-OH,6-Ph) = O=C(CC[C@H](O)[C@H](Cc1ccccc1)N[*:1])[*:2]; X3 = O=C([C@@H]1CCC[C@@H]1[C@H](O)[C@H](Cc1ccccc1)N[*:1])[*:2]; X5 = O=C([C@H]1CCCN1C[C@H](O)[C@H](Cc1ccccc1)N[*:1])[*:2]; Ahppa(3S,4S) = O=C(C[C@H](O)[C@H](Cc1ccccc1)N[*:1])[*:2]; X2 = CC(C)C[C@H](N[*:1])[C@@H](O)CN1CCC[C@@H]1C(=O)[*:2]; X1 = O=C(C[C@H](O)[C@H](Cc1ccc(O)cc1)N[*:1])[*:2]; X4 = O=C([C@H](Cc1ccccc1)N[*:1])C(F)(F)C(=O)[*:2]; X8 = O=C([C@H]1CCCN1C[C@H](Cc1ccccc1)N[*:1])[*:2]; Cbz = O=C(OCc1ccccc1)*; Boc = CC(C)(C)OC(=O)*

target: Human immunodeficiency virus type 1 protease (Human immunodeficiency virus 1, UniProt Q72874); experiment: Binding affinity to HIV-1 protease

Structure (SMILES) | Ki [nM]
CC[C@H](C)[C@H](NC(=O)[C@H]1CCCN1C[C@H](O)[C@H](Cc1ccccc1)NC(=O)[C@H](CC(N)=O)NC(=O)[C@H](CC(C)C)NC(=O)[C@H](CO)NC(C)=O)C(=O)OC (Ac-SLN[X5]I-OMe) | 417
CC(C)(C)OC(=O)N[C@@H](Cc1ccccc1)[C@H](O)CC(=O)N[C@@H](CCC(=O)O)C(=O)N[C@@H](Cc1ccccc1)C(=O)O | 3980
CC(=O)N[C@@H](CO)C(=O)N[C@@H](C)C(=O)N[C@@H](C)C(=O)N[C@@H](Cc1ccccc1)CN1CCC[C@@H]1C(=O)N[C@H](C(=O)N[C@H](C(N)=O)C(C)C)C(C)C (Ac-SAA[X8]VV-NH2) | 38000
CCC(C)CNC(=O)[C@H](C(C)C)[C@@H](O)[C@H](O)[C@H](CC(C)C)NC(=O)[C@H](Cc1c[nH]cn1)NC(=O)[C@H](Cc1ccccc1)NC(=O)OC(C)(C)C (stereo partly specified) | 363
CC[C@H](C)[C@H](NC(=O)[C@@H]1CCCN1C[C@@H](CC(=O)[C@H](CC(N)=O)NC(=O)[C@H](CCC(N)=O)NC(=O)[C@H](CO)NC(=O)[C@@H](N)C(C)C)Cc1ccccc1)C(=O)N[C@H](C(=O)O)C(C)C | 3550
CC[C@H](C)[C@H](NC(=O)[C@H](C(C)C)[C@H](O)[C@H](O)[C@H](CC(C)C)NC(=O)[C@H](Cc1c[nH]cn1)NC(=O)[C@H](Cc1ccccc1)NC(=O)OC(C)(C)C)C(=O)NCc1ccccn1 | 501
CC(C)(C)OC(=O)N[C@@H](Cc1ccccc1)[C@@H](O)C(=O)N[C@@H](CCC(=O)O)C(=O)N[C@@H](Cc1ccccc1)C(=O)O (stereo in doubt; 72) | 17000
COC(=O)[C@@H](NC(=O)[C@@H](NC(=O)C[C@H](O)[C@H](Cc1ccc(O)cc1)NC(=O)[C@H](C)NC(=O)[C@H](C)NC(=O)[C@H](CO)NC(=O)OC(C)(C)C)C(C)C)C(C)C (Boc-SAA[X1]VV-OMe) | 182
COC(=O)[C@@H](NC(=O)[C@@H](NC(=O)CC[C@H](O)[C@H](Cc1ccccc1)NC(=O)[C@H](C)NC(=O)OCc1ccccc1)C(C)C)C(C)C | 120
COC(=O)[C@@H](NC(=O)[C@@H](NC(=O)C(F)(F)C(=O)[C@H](Cc1ccccc1)NC(=O)[C@H](C)NC(=O)[C@H](C)NC(=O)[C@H](CO)NC(=O)OC(C)(C)C)C(C)C)C(C)C (Boc-SAA[X4]VV-OMe) | 158
CC(C)(C)OC(=O)N[C@@H](Cc1ccccc1)[C@H](O)C(=O)N[C@@H](CCC(=O)O)C(=O)N[C@@H](Cc1ccccc1)C(=O)O | 3310
CC(C)(C)OC(=O)N[C@H](Cc1ccccc1)[C@@H](O)CC(=O)N[C@@H](CCC(=O)O)C(=O)N[C@@H](Cc1ccccc1)C(=O)O | 7080
COC(=O)[C@@H](NC(=O)[C@@H](NC(=O)[C@@H]1CCC[C@@H]1[C@H](O)[C@H](Cc1ccccc1)NC(=O)[C@H](C)NC(=O)[C@H](C)NC(=O)[C@@H](N)CO)C(C)C)C(C)C (H-SAA[X3]VV-OMe) | 501
CCC(C)CNC(=O)[C@H](C(C)C)[C@@H](O)[C@H](O)[C@H](CC(C)C)NC(=O)OCc1ccccc1 (stereo partly specified) | 363
COC(=O)[C@@H](NC(=O)[C@@H](NC(=O)C[C@H](O)[C@H](Cc1ccc(O)cc1)NC(=O)[C@H](C)NC(=O)[C@H](C)NC(=O)[C@@H](N)CO)C(C)C)C(C)C (H-SAA[X1]VV-OMe) | 79.4
CC(=O)N[C@@H](CO)C(=O)N[C@@H](CCC(N)=O)C(=O)N[C@@H](CC(N)=O)C(=O)N[C@@H](Cc1ccccc1)CN1CCC[C@@H]1C(=O)N[C@H](C(=O)N[C@H](C(N)=O)C(C)C)C(C)C (stereo in doubt; 70) | 12900
COC(=O)[C@@H](NC(=O)[C@@H](NC(=O)C[C@H](O)[C@H](Cc1ccccc1)NC(=O)[C@H](C)NC(=O)[C@H](C)NC(=O)[C@@H](N)CO)C(C)C)C(C)C (H-SAA[Ahppa(3S,4S)]VV-OMe) | 813

These reach a lower Ki. Values come first.

Ki [nM] | Structure (SMILES)
63.1 | CC(C)(C)OC(=O)N[C@@H](Cc1ccccc1)[C@@H](O)CC(=O)N[C@@H](CCC(=O)O)C(=O)N[C@@H](Cc1ccccc1)C(=O)O
39.8 | CC(C)(C)OC(=O)N[C@@H](Cc1ccccc1)[C@@H](O)[C@H](O)[C@H](Cc1ccccc1)NC(=O)OC(C)(C)C
5.01 | CC(C)[C@H](NC(=O)OCc1ccccc1)C(=O)N[C@@H](Cc1ccccc1)C(=O)C(F)(F)CCc1ccccc1 (stereo in doubt; 17)
70.8 | CC[C@H](C)[C@H](NC(=O)[C@@H](C[C@H](O)C(CC1CCCCC1)NC(=O)[C@@H](N)C(C)C)C(C)C)C(=O)NCc1ccccn1 (stereo partly specified)
3.72 | CC(C)[C@H](NC(=O)OCc1ccccc1)C(=O)N[C@@H](Cc1ccccc1)[C@@H](O)[C@@H](CC(=O)[C@H](NC(=O)OCc1ccccc1)C(C)C)Cc1ccccc1
0.219 | CC(C)[C@H](NC(=O)OCc1ccccc1)C(=O)N[C@@H](Cc1ccccc1)[C@H](O)[C@H](O)[C@H](Cc1ccccc1)NC(=O)[C@@H](NC(=O)OCc1ccccc1)C(C)C
0.603 | CC[C@H](C)[C@H](NC(=O)[C@H](Cc1ccccc1)NC(=O)C[C@H](O)[C@H](Cc1ccccc1)NC(=O)OC(C)(C)C)C(=O)N[C@@H](Cc1ccccc1)C(=O)OC
8.71 | CC[C@H](C)[C@H](NC(=O)[C@@H](C[C@H](O)[C@H](CC(C)C)NC(=O)[C@H](Cc1c[nH]cn1)NC(=O)[C@H](Cc1ccccc1)NC(=O)[C@H]1CCCN1C(=O)[C@H](Cc1c[nH]cn1)NC(=O)OC(C)(C)C)C(C)C)C(=O)N[C@@H](Cc1c[nH]cn1)C(=O)O
18.2 | COC(=O)[C@@H](NC(=O)[C@@H](NC(=O)CC[C@H](O)[C@H](Cc1ccccc1)NC(=O)[C@H](C)NC(=O)[C@H](C)N)C(C)C)C(C)C (H-AA[Hexanoyl(5S-NH,4S-OH,6-Ph)]VV-OMe)
1 | CC(C)[C@H](NC(=O)CNC(=O)OCc1ccccc1)C(=O)N[C@@H](Cc1ccccc1)C(=O)C(F)(F)CCc1ccccc1
2.88 | CC(C)[C@H](NC(=O)NCc1ccccn1)C(=O)N[C@@H](Cc1ccccc1)C(=O)C(F)(F)CCc1ccccc1
17 | CC(C)CC(=O)N[C@H](C(=O)N[C@H](C(=O)N[C@@H](CC(C)C)[C@@H](O)CC(=O)N[C@@H](C)C(=O)N[C@@H](CC(C)C)[C@@H](O)CC(=O)O)C(C)C)C(C)C [PEPSTATIN]
20.9 | CC[C@H](C)[C@H](NC(=O)[C@H]1CCCN1C[C@H](O)[C@H](CC(C)C)NC(=O)[C@H](CC(N)=O)NC(=O)[C@H](CC(C)C)NC(C)=O)C(=O)N[C@H](C(=O)OC)C(C)C (Ac-LN[X2]IV-OMe)
0.339 | CC(C)(C)OC(=O)N[C@@H](Cc1ccccc1)[C@@H](O)CC(Cc1ccc(OCC(=O)O)cc1)C(=O)N[C@@H]1c2ccccc2C[C@H]1O (stereo partly specified)
1.41 | CC(C)[C@H](NC(=O)OCc1ccccc1)C(=O)N[C@@H](Cc1ccccc1)C(=O)C(F)(F)CCc1ccccn1
0.24 | CC[C@H](C)[C@H](NC(=O)[C@H]1CCCN1C[C@H](O)[C@H](Cc1ccccc1)NC(=O)[C@H](CC(N)=O)NC(=O)[C@H](CC(C)C)NC(=O)[C@H](CO)NC(C)=O)C(=O)N[C@H](C(=O)OC)C(C)C (Ac-SLN[X5]IV-OMe)
0.38 | CC(C)[C@H](NC(=O)OCc1ccccc1)C(=O)N[C@@H](Cc1ccccc1)[C@H](O)[C@@H](O)[C@H](Cc1ccccc1)NC(=O)[C@@H](NC(=O)OCc1ccccc1)C(C)C
47.9 | COC(=O)[C@@H](NC(=O)[C@@H](NC(=O)CC[C@H](O)[C@H](Cc1ccccc1)NC(=O)[C@H](Cc1ccccc1)NC(=O)[C@H](C)NC(=O)[C@H](C)NC(=O)OCc1ccccc1)C(C)C)C(C)C (Cbz-AAF[Hexanoyl(5S-NH,4S-OH,6-Ph)]VV-OMe)
2.19 | CC(C)[C@H](NC(=O)OCc1ccccn1)C(=O)N[C@@H](Cc1ccccc1)C(=O)C(F)(F)CCc1ccccc1
